Key:
Bile salt export pump = Bile salt export pump (Homo sapiens, UniProt O95342); assay: Inhibition of human BSEP overexpressed in Sf9 cell membrane vesicles assessed as uptake of [3H]-taurocholate in presence of ATP measured after 15 to 20 mins by membrane vesicle transport assay; type: ADME, cell-based
[1] = molecular target: ATP-binding cassette sub-family C member 2 (Homo sapiens, UniProt Q92887); assay: Inhibition of human MRP2 overexpressed in Sf9 cell membrane vesicles assessed as uptake of [3H]-estradiol-17beta-D-glucuronide in presence of ATP and GSH measured after 20 mins by membrane vesicle transport assay
ATP-binding cassette sub-family C member 2, sequence (Q92887 whole entry): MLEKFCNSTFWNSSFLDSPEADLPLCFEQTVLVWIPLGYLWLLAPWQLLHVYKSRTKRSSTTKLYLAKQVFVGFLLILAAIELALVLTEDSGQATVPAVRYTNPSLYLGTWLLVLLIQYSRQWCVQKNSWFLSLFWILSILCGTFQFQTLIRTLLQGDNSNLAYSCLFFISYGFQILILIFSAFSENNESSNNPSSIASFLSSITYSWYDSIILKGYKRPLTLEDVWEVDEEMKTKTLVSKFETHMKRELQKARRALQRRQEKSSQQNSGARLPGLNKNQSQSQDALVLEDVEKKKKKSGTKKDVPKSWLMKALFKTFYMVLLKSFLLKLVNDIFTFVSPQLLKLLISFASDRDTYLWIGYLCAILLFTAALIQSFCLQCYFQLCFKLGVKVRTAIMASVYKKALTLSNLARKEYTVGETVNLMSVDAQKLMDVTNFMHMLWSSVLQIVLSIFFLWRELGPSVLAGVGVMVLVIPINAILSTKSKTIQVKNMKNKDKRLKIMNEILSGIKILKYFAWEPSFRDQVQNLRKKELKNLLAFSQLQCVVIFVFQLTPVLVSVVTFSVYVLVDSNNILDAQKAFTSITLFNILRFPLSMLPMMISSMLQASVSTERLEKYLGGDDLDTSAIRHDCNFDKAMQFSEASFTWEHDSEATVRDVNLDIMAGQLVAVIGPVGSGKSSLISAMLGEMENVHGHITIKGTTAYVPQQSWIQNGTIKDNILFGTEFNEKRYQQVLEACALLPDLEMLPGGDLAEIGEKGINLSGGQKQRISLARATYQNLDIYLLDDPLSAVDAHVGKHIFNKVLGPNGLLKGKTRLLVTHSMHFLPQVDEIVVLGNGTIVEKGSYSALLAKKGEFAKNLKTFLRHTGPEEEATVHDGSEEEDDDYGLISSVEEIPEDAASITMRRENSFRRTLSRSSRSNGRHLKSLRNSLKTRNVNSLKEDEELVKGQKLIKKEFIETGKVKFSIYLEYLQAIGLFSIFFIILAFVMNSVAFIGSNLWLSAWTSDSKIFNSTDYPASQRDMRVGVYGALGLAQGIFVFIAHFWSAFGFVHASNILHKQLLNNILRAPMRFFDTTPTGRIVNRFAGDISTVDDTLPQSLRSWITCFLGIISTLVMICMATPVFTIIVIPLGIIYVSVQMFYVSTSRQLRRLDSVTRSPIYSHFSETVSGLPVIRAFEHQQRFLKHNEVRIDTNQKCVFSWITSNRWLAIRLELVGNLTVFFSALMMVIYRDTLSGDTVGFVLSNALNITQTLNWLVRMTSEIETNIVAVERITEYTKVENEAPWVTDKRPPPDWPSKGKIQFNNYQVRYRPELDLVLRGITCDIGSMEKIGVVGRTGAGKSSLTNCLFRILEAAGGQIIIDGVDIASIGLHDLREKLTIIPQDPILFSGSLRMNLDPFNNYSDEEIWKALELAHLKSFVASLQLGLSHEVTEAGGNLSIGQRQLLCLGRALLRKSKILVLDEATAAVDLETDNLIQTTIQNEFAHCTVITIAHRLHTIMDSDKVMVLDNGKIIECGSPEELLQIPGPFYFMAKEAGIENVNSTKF

[2] = molecular target: ATP-binding cassette sub-family C member 3 (Homo sapiens, UniProt O15438); assay: Inhibition of human MRP3 overexpressed in Sf9 insect cell membrane vesicles assessed as uptake of [3H]-estradiol-17beta-D-glucuronide in presence of ATP and GSH measured after 10 mins by membrane vesicle transport assay; type: ADME, cell-based
ATP-binding cassette sub-family C member 3, sequence (O15438 whole entry): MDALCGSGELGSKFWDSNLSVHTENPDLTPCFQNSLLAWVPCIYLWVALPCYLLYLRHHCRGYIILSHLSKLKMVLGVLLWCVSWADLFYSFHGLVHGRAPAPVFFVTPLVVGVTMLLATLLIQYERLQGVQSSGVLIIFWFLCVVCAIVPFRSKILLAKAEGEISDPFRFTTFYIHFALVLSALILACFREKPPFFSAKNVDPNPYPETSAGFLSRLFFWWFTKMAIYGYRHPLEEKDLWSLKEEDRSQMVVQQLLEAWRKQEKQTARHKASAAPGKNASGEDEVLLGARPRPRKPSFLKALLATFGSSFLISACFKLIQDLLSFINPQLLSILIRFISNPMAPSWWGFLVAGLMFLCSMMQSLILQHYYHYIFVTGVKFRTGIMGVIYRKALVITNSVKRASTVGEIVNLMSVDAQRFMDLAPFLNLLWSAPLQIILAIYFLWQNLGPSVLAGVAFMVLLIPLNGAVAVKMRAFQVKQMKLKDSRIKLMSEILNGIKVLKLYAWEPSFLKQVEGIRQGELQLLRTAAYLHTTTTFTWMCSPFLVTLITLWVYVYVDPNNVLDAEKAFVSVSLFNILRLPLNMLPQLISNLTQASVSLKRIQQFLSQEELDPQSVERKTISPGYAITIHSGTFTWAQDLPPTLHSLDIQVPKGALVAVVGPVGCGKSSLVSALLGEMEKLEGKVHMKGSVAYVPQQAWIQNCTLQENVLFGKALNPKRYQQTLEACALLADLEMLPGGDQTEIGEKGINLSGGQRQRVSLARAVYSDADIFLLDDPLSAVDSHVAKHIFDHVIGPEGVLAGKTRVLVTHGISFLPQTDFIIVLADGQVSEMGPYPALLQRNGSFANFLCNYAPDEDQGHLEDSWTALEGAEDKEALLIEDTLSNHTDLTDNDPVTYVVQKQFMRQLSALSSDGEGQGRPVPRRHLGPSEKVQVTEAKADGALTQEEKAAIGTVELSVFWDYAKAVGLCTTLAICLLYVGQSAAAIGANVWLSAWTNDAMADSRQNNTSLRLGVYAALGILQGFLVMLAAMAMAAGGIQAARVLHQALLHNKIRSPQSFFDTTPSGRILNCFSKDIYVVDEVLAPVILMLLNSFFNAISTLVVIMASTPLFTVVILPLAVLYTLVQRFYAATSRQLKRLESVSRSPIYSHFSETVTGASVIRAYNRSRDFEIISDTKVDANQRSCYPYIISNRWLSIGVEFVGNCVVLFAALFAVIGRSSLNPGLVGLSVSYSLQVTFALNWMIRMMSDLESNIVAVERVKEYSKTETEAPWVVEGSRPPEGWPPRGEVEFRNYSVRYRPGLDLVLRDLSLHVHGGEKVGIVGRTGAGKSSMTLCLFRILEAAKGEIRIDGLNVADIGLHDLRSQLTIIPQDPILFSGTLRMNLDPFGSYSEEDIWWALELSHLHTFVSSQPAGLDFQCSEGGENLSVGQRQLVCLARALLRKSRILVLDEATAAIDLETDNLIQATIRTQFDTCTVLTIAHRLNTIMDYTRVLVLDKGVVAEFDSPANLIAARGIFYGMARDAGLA

[3] = molecular target: T1, ATP-binding cassette sub-family C member 4 (Homo sapiens, UniProt O15439); assay: Inhibition of human MRP4 overexpressed in Sf9 cell membrane vesicles assessed as uptake of [3H]-estradiol-17beta-D-glucuronide in presence of ATP and GSH measured after 20 mins by membrane vesicle transport assay; type: ADME, cell-based
T1 sequence (O15439 whole entry): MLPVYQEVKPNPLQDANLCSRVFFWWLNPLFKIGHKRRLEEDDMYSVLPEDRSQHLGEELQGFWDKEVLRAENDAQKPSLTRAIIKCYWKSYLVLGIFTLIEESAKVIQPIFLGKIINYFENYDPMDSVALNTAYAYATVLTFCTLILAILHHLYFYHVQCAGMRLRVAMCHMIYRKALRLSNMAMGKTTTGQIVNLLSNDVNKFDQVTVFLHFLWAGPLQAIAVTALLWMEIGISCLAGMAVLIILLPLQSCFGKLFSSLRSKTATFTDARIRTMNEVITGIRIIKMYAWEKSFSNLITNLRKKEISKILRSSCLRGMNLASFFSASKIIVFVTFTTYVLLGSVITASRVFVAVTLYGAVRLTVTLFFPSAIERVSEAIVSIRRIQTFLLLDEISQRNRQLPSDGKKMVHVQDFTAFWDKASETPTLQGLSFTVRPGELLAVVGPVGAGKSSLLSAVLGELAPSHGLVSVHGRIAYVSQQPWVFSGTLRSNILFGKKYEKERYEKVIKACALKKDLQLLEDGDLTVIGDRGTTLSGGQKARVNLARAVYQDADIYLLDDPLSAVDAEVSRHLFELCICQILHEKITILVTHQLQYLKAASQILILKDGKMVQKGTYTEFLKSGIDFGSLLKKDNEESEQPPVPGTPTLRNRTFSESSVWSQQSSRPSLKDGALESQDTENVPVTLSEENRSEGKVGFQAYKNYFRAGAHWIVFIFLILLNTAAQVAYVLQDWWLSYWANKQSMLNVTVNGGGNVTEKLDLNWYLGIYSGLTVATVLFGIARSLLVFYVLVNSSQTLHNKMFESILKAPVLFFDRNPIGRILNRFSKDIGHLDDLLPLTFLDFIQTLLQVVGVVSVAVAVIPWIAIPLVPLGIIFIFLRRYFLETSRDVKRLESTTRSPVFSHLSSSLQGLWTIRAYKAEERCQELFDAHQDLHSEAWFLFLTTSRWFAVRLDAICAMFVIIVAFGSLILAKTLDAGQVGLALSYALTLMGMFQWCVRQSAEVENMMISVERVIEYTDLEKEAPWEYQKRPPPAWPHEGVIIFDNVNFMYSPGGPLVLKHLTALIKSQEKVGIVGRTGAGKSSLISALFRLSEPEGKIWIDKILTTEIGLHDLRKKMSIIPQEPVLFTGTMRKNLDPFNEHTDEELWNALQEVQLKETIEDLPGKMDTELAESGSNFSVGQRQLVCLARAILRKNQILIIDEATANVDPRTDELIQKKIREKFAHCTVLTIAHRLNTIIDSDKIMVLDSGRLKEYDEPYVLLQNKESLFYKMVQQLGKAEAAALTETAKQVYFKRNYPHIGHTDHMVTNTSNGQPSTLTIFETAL

[4] = AUC in human at 15 to 60 mg, po QD after 24 hrs; type: ADME, organism-based; conditions: in vivo
[5] = Drug concentration at steady state in human at 15 to 60 mg, po QD after 24 hrs; type: ADME, organism-based; conditions: in vivo, read-out: Css
[6] = Ratio of drug concentration at steady state in human at 15 to 60 mg, po QD after 24 hrs to IC50 for human BSEP overexpressed in Sf9 insect cells; type: ADME, organism-based; conditions: in vivo
[7] = AUC in human at 10 mg, po after 24 hrs; type: ADME, organism-based; parameters: time < 24 hr, dose 10 mg, route oral; conditions: in vivo
[8] = Drug concentration at steady state in human at 10 mg, po after 24 hrs; type: ADME, organism-based; conditions: in vivo, read-out: Css
[9] = Ratio of drug concentration at steady state in human at 10 mg, po after 24 hrs to IC50 for human BSEP overexpressed in Sf9 insect cells; type: ADME, organism-based; conditions: in vivo
[10] = AUC in human at 50 mg, po QD after 24 hrs; type: ADME, organism-based; parameters: dose 50 mg, time < 24 hr, route oral; conditions: in vivo
[11] = Drug concentration at steady state in human at 50 mg, po QD after 24 hrs; type: ADME, organism-based; conditions: in vivo, read-out: Css
[12] = Ratio of drug concentration at steady state in human at 50 mg, po QD after 24 hrs to IC50 for human BSEP overexpressed in Sf9 insect cells; type: ADME, organism-based; conditions: in vivo
[13] = AUC in human at 1 ug/ml, po QD after 24 hrs; type: ADME, organism-based; parameters: dose 1 ug/ml, time < 24 hr, route oral; conditions: in vivo
Homo sapiens = assay: Drug concentration at steady state in human at 1 ug/ml, po QD after 24 hrs; type: ADME, organism-based; conditions: in vivo
[14] = Ratio of drug concentration at steady state in human at 1 ug/ml, po QD after 24 hrs to IC50 for human BSEP overexpressed in Sf9 insect cells; type: ADME, organism-based
[15] = AUC in human at 2.5 to 10 mg, po QD after 24 hrs; type: ADME, organism-based; conditions: in vivo
[16] = Drug concentration at steady state in human at 2.5 to 10 mg, po QD after 24 hrs; type: ADME, organism-based; conditions: in vivo, read-out: Css
[17] = Ratio of drug concentration at steady state in human at 2.5 to 10 mg, po QD after 24 hrs to IC50 for human BSEP overexpressed in Sf9 insect cells; type: ADME, organism-based; conditions: in vivo
[18] = Drug concentration at steady state in human at 10 mg, po QD after 24 hrs; conditions: in vivo
clinical = conditions: human, in vivo, po, 10 mg
[19] = AUC in human at 5 to 10 mg, po QD after 24 hrs; type: ADME, organism-based; conditions: in vivo
[20] = Drug concentration at steady state in human at 5 to 10 mg, po QD after 24 hrs; type: ADME, organism-based; conditions: in vivo, read-out: Css
[21] = Ratio of drug concentration at steady state in human at 5 to 10 mg, po QD after 24 hrs to IC50 for human BSEP overexpressed in Sf9 insect cells; type: ADME, organism-based; conditions: in vivo
[22] = Ratio of drug concentration at steady state in human at 5 to 10 mg, po QD after 24 hrs to IC50 for human MRP4 overexpressed in Sf9 insect cells; type: ADME, organism-based; conditions: in vivo
[23] = AUC in human at 1 to 40 mg, po QD after 24 hrs; type: ADME, organism-based; conditions: in vivo
[24] = Drug concentration at steady state in human at 1 to 40 mg, po QD after 24 hrs; type: ADME, organism-based; conditions: in vivo, read-out: Css

Bile salt export pump, sequence (O95342 whole entry): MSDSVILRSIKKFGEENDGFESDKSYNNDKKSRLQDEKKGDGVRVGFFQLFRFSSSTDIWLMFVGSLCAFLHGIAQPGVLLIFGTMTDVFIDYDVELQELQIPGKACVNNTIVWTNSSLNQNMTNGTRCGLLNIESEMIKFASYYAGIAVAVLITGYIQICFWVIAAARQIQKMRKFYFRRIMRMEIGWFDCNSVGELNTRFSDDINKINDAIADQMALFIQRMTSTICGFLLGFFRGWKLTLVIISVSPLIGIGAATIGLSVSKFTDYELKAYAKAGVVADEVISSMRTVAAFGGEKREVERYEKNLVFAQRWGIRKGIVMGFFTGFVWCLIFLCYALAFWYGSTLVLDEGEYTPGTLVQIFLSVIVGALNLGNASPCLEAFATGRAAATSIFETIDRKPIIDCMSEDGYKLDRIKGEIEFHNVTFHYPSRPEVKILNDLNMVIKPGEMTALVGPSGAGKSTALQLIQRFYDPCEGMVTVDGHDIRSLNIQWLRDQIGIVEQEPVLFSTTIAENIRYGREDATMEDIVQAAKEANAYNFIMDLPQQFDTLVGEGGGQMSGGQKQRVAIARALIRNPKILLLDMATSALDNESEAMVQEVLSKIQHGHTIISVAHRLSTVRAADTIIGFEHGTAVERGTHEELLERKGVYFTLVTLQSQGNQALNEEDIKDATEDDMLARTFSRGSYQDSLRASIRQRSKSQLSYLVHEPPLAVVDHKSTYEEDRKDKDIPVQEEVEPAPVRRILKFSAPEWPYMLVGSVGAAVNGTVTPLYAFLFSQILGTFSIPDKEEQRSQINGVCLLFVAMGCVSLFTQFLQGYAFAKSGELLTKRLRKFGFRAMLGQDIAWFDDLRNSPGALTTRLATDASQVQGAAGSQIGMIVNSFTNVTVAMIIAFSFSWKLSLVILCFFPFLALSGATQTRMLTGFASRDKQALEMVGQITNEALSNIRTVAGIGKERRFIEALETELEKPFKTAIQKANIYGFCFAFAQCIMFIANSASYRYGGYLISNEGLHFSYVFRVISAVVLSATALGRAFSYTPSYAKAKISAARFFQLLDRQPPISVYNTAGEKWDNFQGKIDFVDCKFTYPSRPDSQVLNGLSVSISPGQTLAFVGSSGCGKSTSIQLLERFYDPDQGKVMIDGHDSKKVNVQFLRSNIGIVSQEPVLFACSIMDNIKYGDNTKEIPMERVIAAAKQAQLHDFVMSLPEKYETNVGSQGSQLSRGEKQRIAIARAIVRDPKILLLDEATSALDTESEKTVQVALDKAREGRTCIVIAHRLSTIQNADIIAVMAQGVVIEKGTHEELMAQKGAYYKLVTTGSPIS

Cc1ccccc1C(=O)Nc1ccc(C(=O)N2CCCC(O)c3cc(Cl)ccc32)c(C)c1 (stereo not given) [TOLVAPTAN]
IC50 (Bile salt export pump): 9.99 µM | IC50 [1]: > 133 µM | IC50 [2]: > 133 µM | IC50 [3]: > 133 µM | AUC at 24 h [4]: 9.49 µM·h | concentration at 24 h [5]: 396 nM | Ratio [6]: 0.04

O=C1[C@H](CC[C@H](O)c2ccc(F)cc2)[C@@H](c2ccc(O)cc2)N1c1ccc(F)cc1 [EZETIMIBE]
IC50 (Bile salt export pump): 56 µM | IC50 [1]: > 133 µM | IC50 [2]: > 133 µM | IC50 [3]: > 133 µM | AUC at 24 h [7]: 3.2 µM·h | concentration at 24 h [8]: 134 nM | Ratio [9]: 0.002

CC(O)(CS(=O)(=O)c1ccc(F)cc1)C(=O)Nc1ccc(C#N)c(C(F)(F)F)c1 (stereo not given) [BICALUTAMIDE]
IC50 (Bile salt export pump): 79.6 µM | IC50 [1]: > 133 µM | IC50 [2]: > 133 µM | IC50 [3]: > 133 µM | AUC at 24 h [10]: 502 µM·h | concentration at 24 h [11]: 20.9 µM | Ratio [12]: 0.263

C=C1/C(=C\C=C2/CCC[C@]3(C)[C@@H]([C@H](C)CCCC(C)(C)O)CC[C@@H]23)C[C@@H](O)C[C@@H]1O [CALCITRIOL]
IC50 (Bile salt export pump): 39.7 µM | IC50 [1]: > 133 µM | IC50 [2]: > 133 µM | IC50 [3]: > 133 µM | AUC at 24 h [13]: 2 nM·h | Css (Homo sapiens): 0 µM | Ratio [14]: 1.6e-6

CCOC(=O)C1=C(C)NC(C)=C(C(=O)OC)C1c1cccc(Cl)c1Cl (stereo not given) [FELODIPINE]
IC50 (Bile salt export pump): 69.7 µM | IC50 [1]: > 133 µM | IC50 [2]: > 133 µM | IC50 [3]: > 133 µM | AUC at 24 h [15]: 0.107 µM·h | concentration at 24 h [16]: 4 nM | Ratio [17]: 0.00006

CCOC(=O)N1CCC(=C2c3ccc(Cl)cc3CCc3cccnc32)CC1 [LORATADINE]
IC50 (Bile salt export pump): 12 µM | IC50 [1]: > 133 µM | IC50 [2]: > 133 µM | IC50 [3]: > 133 µM | concentration at 24 h [18]: 1 nM | AUC at 24 h (clinical): 0.029 µM·h

CC(=O)O[C@]1(C(C)=O)CC[C@H]2[C@@H]3C[C@H](C)C4=CC(=O)CC[C@]4(C)[C@H]3CC[C@@]21C [MEDROXYPROGESTERONE ACETATE]
IC50 (Bile salt export pump): 15.7 µM | IC50 [1]: > 133 µM | IC50 [2]: > 133 µM | IC50 [3]: 22.5 µM | AUC at 24 h [19]: 0.016 µM·h | concentration at 24 h [20]: 1 nM | Ratio [21]: 0.00004 | Ratio [22]: 0

Cl.OCCN1CCN(CCCN2c3ccccc3Sc3ccc(C(F)(F)F)cc32)CC1
IC50 (Bile salt export pump): 87.3 µM | IC50 [1]: > 133 µM | IC50 [2]: > 133 µM | IC50 [3]: > 133 µM | AUC at 24 h [23]: 0.03 µM·h | concentration at 24 h [24]: 1 nM
